In ChEMBL document CHEMBL1158848, “Synthesis and separation of potential anticancer active dihalocephalomannine diastereomers from extracts of Taxus yunnanensis” (1998) one finds GI50, LC50 (50% lethal concentration) and TGI data, which are given here for three molecules.

This assay is described as follows: Cytotoxicity against human NCI60 cells. The format is functional.

The GI50 is the concentration that inhibits growth by half. The TGI is the concentration giving total growth inhibition. A lower TGI goes with greater sensitivity of the cells. As to `CC(=O)O[C@H]1C(=O)[C@@]2(C)[C@H]([C@H](OC(=O)c3ccccc3)[C@]3(O)C[C@H](OC(=O)[C@H](O)[C@@H](NC(=O)[C@@](C)(Cl)[C@H](C)Cl)c4ccccc4)C(C)=C1C3(C)C)[C@]1(OC(C)=O)CO[C@@H]1C[C@@H]2O`, it took 210 nM to inhibit growth by half (GI50), the LC50 (50% lethal concentration) turned out to be 32000 nM and the total growth inhibition concentration (TGI) worked out at 6300 nM.

Consider `CC(=O)O[C@H]1C(=O)[C@@]2(C)[C@H]([C@H](OC(=O)c3ccccc3)[C@]3(O)C[C@H](OC(=O)[C@H](O)[C@@H](NC(=O)[C@](C)(Cl)[C@@H](C)Cl)c4ccccc4)C(C)=C1C3(C)C)[C@]1(OC(C)=O)CO[C@@H]1C[C@@H]2O`, for which the concentration for 50% growth inhibition (GI50) was determined as 140 nM, the LC50 (50% lethal concentration) was 29000 nM and total growth inhibition (TGI) required 4200 nM.

In the case of `CC(=O)O[C@H]1C(=O)[C@@]2(C)[C@H]([C@H](OC(=O)c3ccccc3)[C@]3(O)C[C@H](OC(=O)[C@H](O)[C@@H](NC(=O)c4ccccc4)c4ccccc4)C(C)=C1C3(C)C)[C@]1(OC(C)=O)CO[C@@H]1C[C@@H]2O` [PACLITAXEL], it took 0.65 nM to inhibit growth by half (GI50) and net growth stopped (TGI) at 150 nM.
